The source of these data is patent US20110183336A1, “Method to Predict Responsiveness of Breast Cancer to Polyamine-Type Chemotherapy” (THE REGENTS OF THE UNIVERSITY OF CALIFORNIA, priority 2007, published 2011).

What all share (format): cell-based
Experiment [1] relates to Human breast cancer cell line MCF7. Briefly: Colony formation (plating efficiency) standard protocol. The note with it: MCF7, MCF7, 4 hours exposure, colony formation day 15-20, read-out: ED50 (the source's name). As for the experimental part: (§1) Cell lines and media: Human breast cancer cell line MCF7 was grown in Richter's Improved Modified Eagle's Medium supplemented with 10% fetal bovine serum (FBS) and 2.2 g/L sodium bicarbonate. Human brain cancer cell line U251MG-NCI was grown in Dulbecco's Modified Eagle's Medium supplemented with 10% FBS. Human lung cancer cell line A549 was grown in Ham's F-12K medium (Fisher Scientific, Itasca, Ill.), supplemented with 10% FBS and 2 mM L-glutamine. Human colon cancer cell line HT29 was cultured in McCoy's 5A medium (Gibco, BRL, Gaithersburg, Md.), supplemented with 10% FBS. Human prostate cancer cell line PC3 was grown in Dulbecco's Modified Eagles Medium supplemented with 5% FBS. The A549 and MCF7 cell lines were cultured in 100 units/mL penicillin and 100 μg/mL streptomycin. HT29 and U251MG cell lines were grown in 50 μg/mL gentamycin. PC3 cell lines were maintained in 1% antibiotic-antimycotic solution (Sigma, St. Louis, Mo.). The cell cultures were maintained at 37° C. in 5% CO2/95% humidified air. All cell cultures are available from the American Type Culture Collection, Rockville, Md.
(§2) A standardized protocol was used to evaluate these test cultures:
(§3) Day 1: Ten standard culture flasks for each drug to be tested were plated with 5×10^5 cells of a given type in 5 mL of media and allowed to incubate for 16-24 hours at 37° C.
(§4) Day 2: Fresh stocks of the compounds to be evaluated are prepared. For each drug, two of the ten culture flasks prepared on Day 1 are used as controls. The control flasks are treated with solvent only. Four flasks for each compound are then treated with serially-diluted concentrations of the compound. The remaining flasks are left untouched. The cells are incubated for 4 hours at 37° C.
(§5) After 4 hours the control flasks are counted (2 counts for each flask) and the cells per mL calculated based on the average of the control counts. The cells are then re-plated into six 60 mm dishes for each flask from dilutions based on the cells/mL of the control. (In the various test runs, cell concentrations ranged from approximately 50 to approximately 800 cells per mL.)
(§6) Day 15-20: The cells are monitored for colony formation. When visible, the cells are stained with 0.5% crystal violet (in 95% EtOH) and counted. The plating efficiency for each dish is then calculated. The plating efficiencies of the six dishes for each flask are averaged and the standard deviation is calculated. The fraction of cell survival at each concentration is determined based on the controls.

The test system of the next experiment is A549. Briefly: MTT assay, percent cell survival. The note with it: Homo sapiens, A549, 144 h, six days after drug treatment, read-out: ID50(μM) A549. As for the experimental part: Human brain cancer cell line U251MG-NCI was grown in Dulbecco's Modified Eagle's Medium supplemented with 10% FBS. […] Human prostate cancer cell line PC3 was grown in Dulbecco's Modified Eagles Medium supplemented with 5% FBS. […] The cell cultures were maintained at 37° C. in 5% CO2/95% humidified air.
(§7) Here, a conventional MTT assay was used to evaluate percent cell survival. Exponentially growing monolayer cells were plated in 96-well plates at a density of 500 cells per well and allowed to grow for 24 hours. Serial dilutions of the drugs were added to the wells. Six days after drug treatment, 25 μl of MTT solution (5 mg/ml) was added to each well and incubated for 4 hours at 37° C. Then 100 μl of lysis buffer (20% sodium dodecyl sulfate, 50% DMF, and 0.8% acetic acid, pH 4.7) was added to each well and incubated for an additional 22 hours. A microplate reader (“EMAX”-brand, Molecular Devices, Sunnyvale, Calif.) set at 570 nm was used to determine the optical density of the cultures. Results are expressed as a ratio of the optical density in drug-treated wells to the optical density in wells treated with vehicle only.
(§8) The ID50 is the drug concentration that killed 50% of the cultured cells.

A further experiment deals with HT-29. Briefly: MTT assay, percent cell survival. The note with it: Homo sapiens, HT-29, 144 h, HT-29, MTT, six days after drug treatment; read-out: ID50(μM) HT-29. On the procedure: as §1, §7, §8
For a further experiment, the system named is MCF7. In words: MTT assay, percent cell survival. The note with it: Homo sapiens, MCF7, 144 h, six days after drug treatment, read-out: ID50(μM) MCF7. On the procedure: as §1, §7, §8
Another experiment has as its system PC-3. In words: MTT assay, percent cell survival. The note with it: Homo sapiens, PC-3, 144 h, PC-3, MTT, six days after drug treatment; read-out: ID50(μM) PC-3. As for the experimental part:
as §1, §7, §8

The next experiment relates to U251MG NCl. In words: MTT assay, percent cell survival. The note with it: Homo sapiens, U-251, 144 h, six days after drug treatment, read-out: ID50(μM) U251MG NCl. On the procedure: as §1, §7, §8
For experiment [2], the system named is human brain cancer cell line U251MG-NCI. Briefly: Colony formation (plating efficiency) standard protocol. As for the experimental part: as §1, §2, §3, §4, §5, §6

Structures are written as SMILES. A value given as a limit tells only on which side of the number the result lay.

Regarding `CCNCCCNCC1CC1CNCCCNCC` (stereo not drawn) [SL-11038], the EC50 in experiment [1] came out at 1340 nM.
Regarding `CCNCCCNCC1CCC1CNCCCNCC` (stereo not drawn) [SL-11044], in the experiment on A549, the IC50 came to 0.3 µM.
As to `CCNCCCNCC1CC1CNCCCNCC` (stereo not drawn) [SL-11037], the IC50 is 1.6 µM in the experiment on HT-29, over 31.2 µM in the experiment with MCF7, 7.4 µM in the experiment with PC-3 and 0.1 µM with U251MG NCl.
As to `CCNCCCNC1CC1NCCCNCC` (stereo not drawn) [SL-11027], the “inhibition of cell growth” value in experiment [2] (10 μM dose) is recorded as “marked inhibition of cell growth”.
Turning to `CCNCCCNCC1CCC1CNCCCNCC` (stereo not drawn) [SL-11043], the EC50 in experiment [1] was 1640 nM. In addition, the results for the IC50 in the experiment with HT-29, in the experiment on MCF7 and with U251MG NCl were 1.5 µM, 25.5 µM and 0.1 µM, respectively.
In the case of `CCNCCCNC1CCC1NCCCNCC` (stereo not drawn) [SL-11034], the “inhibition of cell growth” value in experiment [2] (40 μM dose) is “marked inhibition of cell growth”.
